Experimental findings from patent publication US9328112B2, “Tetracyclic CDK9 kinase inhibitors” (AbbVie Inc., priority 2014, dated 2016) are described below.

Where a name gives a salt, the structure may show the parent alone.

One assay deals with H929 cells. The assay is described as follows: Cell viability assay (Cell TiterGlo). As to conditions: Homo sapiens, NCI-H929, 24 hours at 37° C., Cell TiterGlo luminescence. The format is cell-based. The procedure: The cell viability assay was performed using H929 cells. Cells were seeded in 96-well plates at 10,000 cells/well and, after overnight incubation, treated with compounds in a dose response of 3-fold dilutions from 10 μM to 0.005 μM ([…], 0.1% final DMSO concentration). After 24 hours at 37° C., cell viability was measured using Cell TiterGlo reagent (Promega) with a luminescence reader.

A further assay concerns the target CDK9/Cyclin T1 (Homo sapiens (Human), UniProt P50750). The assay is described as follows: CDK9 enzyme assay (LANCE ULight TR-FRET kinase assay). The format is biochemical. As to conditions: 1000 μM ATP, 100 nM ULight MBP, kinase reaction 1 hour. The procedure:
CDK9 enzyme activities were measured using LANCE ULight TR-FRET kinase assay reagents (PerkinElmer, Waltham, Mass.). Compounds were diluted in 100% DMSO then diluted with 1:10 in serine/threonine kinase assay buffer containing 20 mM HEPES, 10 mM MgCl2, […], and 0.0075% Triton X-100. Equal volume of the compound dilutions was added to a final reaction mixture containing LANCE detection buffer (PerkinElmer CR97-100), 100 nM ULight MBP (PerkinElmer TRF0109M), 1000 μM ATP, and CDK9/Cyclin T1 (Carna Biosciences 04-110). The kinase reaction was carried out for 1 hour before addition of stopping buffer to a final of 20 mM EDTA and 0.5 nM of LANCE Ultra Europium anti-phospho-MBP antibody (PerkinElmer TRF0201M) in LANCE detection buffer. The reaction was incubated for 1 hour and the signal was read in Envision in TR-FRET mode (excitation at 320 nm and emission at 615/665 nm).

CDK9/Cyclin T1, sequence (P50750 whole entry): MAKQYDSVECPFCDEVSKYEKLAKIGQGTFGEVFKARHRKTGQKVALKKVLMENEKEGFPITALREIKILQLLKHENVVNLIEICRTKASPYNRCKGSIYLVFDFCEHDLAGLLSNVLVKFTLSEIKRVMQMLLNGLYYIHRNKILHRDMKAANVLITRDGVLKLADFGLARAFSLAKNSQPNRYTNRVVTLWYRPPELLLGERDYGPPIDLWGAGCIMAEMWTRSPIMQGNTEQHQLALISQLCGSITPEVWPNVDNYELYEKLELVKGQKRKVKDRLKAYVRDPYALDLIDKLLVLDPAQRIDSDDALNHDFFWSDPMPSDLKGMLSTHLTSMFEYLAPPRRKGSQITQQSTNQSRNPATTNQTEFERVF
CDK9/Cyclin T1, sequence (O60563 whole entry partner): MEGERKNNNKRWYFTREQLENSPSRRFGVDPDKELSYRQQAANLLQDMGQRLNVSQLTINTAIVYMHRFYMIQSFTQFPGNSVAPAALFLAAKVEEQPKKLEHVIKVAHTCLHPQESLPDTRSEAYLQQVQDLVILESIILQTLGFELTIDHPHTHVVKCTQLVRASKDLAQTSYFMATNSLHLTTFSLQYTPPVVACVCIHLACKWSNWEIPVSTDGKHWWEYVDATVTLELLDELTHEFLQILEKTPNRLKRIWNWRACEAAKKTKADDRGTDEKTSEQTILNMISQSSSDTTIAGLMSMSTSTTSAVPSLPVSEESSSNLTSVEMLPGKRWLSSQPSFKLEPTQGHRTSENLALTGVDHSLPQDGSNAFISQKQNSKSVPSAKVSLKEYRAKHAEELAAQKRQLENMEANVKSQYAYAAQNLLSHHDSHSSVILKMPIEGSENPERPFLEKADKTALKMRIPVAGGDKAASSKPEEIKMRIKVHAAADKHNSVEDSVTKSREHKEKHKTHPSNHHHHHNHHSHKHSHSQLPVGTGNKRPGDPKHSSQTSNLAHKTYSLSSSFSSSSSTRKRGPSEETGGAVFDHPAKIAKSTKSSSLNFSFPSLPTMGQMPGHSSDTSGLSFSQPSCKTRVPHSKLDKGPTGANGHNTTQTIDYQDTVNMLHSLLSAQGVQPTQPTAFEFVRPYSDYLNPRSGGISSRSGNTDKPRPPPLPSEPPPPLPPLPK

With `CN1Cc2c(C3=CCN(CC(=O)O)CC3)[nH]c3nccc(c23)-c2cc(F)ccc21` [Example 16, [4-(10-fluoro-7-methyl-6,7-dihydro-4H-3,4,7-triazadibenzo[cd,f]azulen-5-yl)-3,6-dihydropyridin-1(2H)-yl]acetic acid dihydrochloride], the IC50 in the assay with H929 cells came out at 220 nM; on CDK9/Cyclin T1, 61 nM.
Take `CN1Cc2c(C3=CCN(CC(=O)N4CCC[C@H]4CO)CC3)[nH]c3nccc(c23)-c2cc(F)ccc21` [Example 17, 2-[4-(10-fluoro-7-methyl-6,7-dihydro-4H-3,4,7-triazadibenzo[cd,f]azulen-5-yl)-3,6-dihydropyridin-1(2H)-yl]-1-[(2S)-2-(hydroxymethyl)pyrrolidin-1-yl]ethanone]: the IC50 with H929 cells worked out at 9 nM; on CDK9/Cyclin T1, 70 nM.
The matching figures for `CN1Cc2c(C3=CCN(CC(=O)N4CC(O)C4)CC3)[nH]c3nccc(c23)-c2cc(F)ccc21` [Example 18, 2-[4-(10-fluoro-7-methyl-6,7-dihydro-4H-3,4,7-triazadibenzo[cd,f]azulen-5-yl)-3,6-dihydropyridin-1(2H)-yl]-1-(3-hydroxyazetidin-1-yl)ethanone]: 160 nM and 44 nM.
The matching figures for `CN(CCO)C(=O)CN1CC=C(c2[nH]c3nccc4c3c2CN(C)c2ccc(F)cc2-4)CC1` [Example 19, 2-[4-(10-fluoro-7-methyl-6,7-dihydro-4H-3,4,7-triazadibenzo[cd,f]azulen-5-yl)-3,6-dihydropyridin-1(2H)-yl]-N-(2-hydroxyethyl)-N-methylacetamide]: 8 nM and 48 nM.
The matching figures for `CC1c2c(C3=CCN(S(C)(=O)=O)CC3)[nH]c3nccc(c23)-c2cc(F)ccc2N1C` (centres unmarked) [Example 20, 10-fluoro-6,7-dimethyl-5-[1-(methylsulfonyl)-1,2,3,6-tetrahydropyridin-4-yl]-6,7-dihydro-4H-3,4,7-triazadibenzo[cd,f]azulene]: 47 nM and 110 nM.
For `CN1Cc2c(C3CCNCC3)[nH]c3nccc(c23)-c2cc(F)ccc21` [Example 21, 10-fluoro-7-methyl-5-(piperidin-4-yl)-6,7-dihydro-4H-3,4,7-triazadibenzo[cd,f]azulene], the IC50 with H929 cells was 460 nM; against CDK9/Cyclin T1, 400 nM.
The matching figures for `CN1Cc2c(C3=CCN(CC(=O)N(C)C4CC(O)C4)CC3)[nH]c3nccc(c23)-c2cc(F)ccc21` (centres unmarked) [Example 24, 2-[4-(10-fluoro-7-methyl-6,7-dihydro-4H-3,4,7-triazadibenzo[cd,f]azulen-5-yl)-3,6-dihydropyridin-1(2H)-yl]-N-(3-hydroxycyclobutyl)-N-methylacetamide]: 27 nM and 40 nM.
In the same order, the values of `CNS(=O)(=O)CC(=O)N1CC=C(c2[nH]c3nccc4c3c2CN(C)c2ccc(F)cc2-4)CC1` [Example 25, 2-[4-(10-fluoro-7-methyl-6,7-dihydro-4H-3,4,7-triazadibenzo[cd,f]azulen-5-yl)-3,6-dihydropyridin-1(2H)-yl]-N-methyl-2-oxoethanesulfonamide] are 65 nM and 22 nM.
The matching figures for `CN1Cc2c(C3CCN(CC(=O)N4CCC[C@H]4CO)CC3)[nH]c3nccc(c23)-c2cc(F)ccc21` [Example 26, 2-[4-(10-fluoro-7-methyl-6,7-dihydro-4H-3,4,7-triazadibenzo[cd, f]azulen-5-yl)piperidin-1-yl]-1-[(2S)-2-(hydroxymethyl)pyrrolidin-1-yl]ethanone]: 150 nM and 93 nM.
Take `CN(CCO)C(=O)CN1CCC(c2[nH]c3nccc4c3c2CN(C)c2ccc(F)cc2-4)CC1` [Example 27, 2-[4-(10-fluoro-7-methyl-6,7-dihydro-4H-3,4,7-triazadibenzo[cd,f]azulen-5-yl)piperidin-1-yl]-N-(2-hydroxyethyl)-N-methylacetamide]: the values for the IC50 in the assay on H929 cells and on CDK9/Cyclin T1 were 210 nM and 91 nM, respectively.
The matching figures for `CCOC(=O)C1c2c(C3=CCNCC3)[nH]c3nccc(c23)-c2cc(F)ccc2N1C` (centres unmarked) [Example 28, ethyl 10-fluoro-7-methyl-5-(1,2,3,6-tetrahydropyridin-4-yl)-6,7-dihydro-4H-3,4,7-triazadibenzo[cd,f]azulene-6-carboxylate]: 25 nM and 150 nM.
`CC(C)[C@@H](NC1CC=C(c2[nH]c3nccc4c3c2CN(C)c2ccc(F)cc2-4)CC1)C(=O)O` (stereo partly drawn) [Example 29, N-[4-(10-fluoro-7-methyl-6,7-dihydro-4H-3,4,7-triazadibenzo[cd,f]azulen-5-yl)cyclohex-3-en-1-yl]-D-valine]: the results for the IC50 in the assay with H929 cells and at CDK9/Cyclin T1 were 94 nM and 46 nM, respectively.
Take `C[C@H](NC1CC=C(c2[nH]c3nccc4c3c2CN(C)c2ccc(F)cc2-4)CC1)C(=O)O` (stereo partly drawn) [Example 30, N-[4-(10-fluoro-7-methyl-6,7-dihydro-4H-3,4,7-triazadibenzo[cd,f]azulen-5-yl)cyclohex-3-en-1-yl]-L-alanine]: the IC50 in the assay with H929 cells and on CDK9/Cyclin T1 was 100 nM each time.
Turning to `CN1Cc2c(C3=CCC(NCC(=O)O)CC3)[nH]c3nccc(c23)-c2cc(F)ccc21` (centres unmarked) [Example 31, N-[4-(10-fluoro-7-methyl-6,7-dihydro-4H-3,4,7-triazadibenzo[cd,f]azulen-5-yl)cyclohex-3-en-1-yl]glycine], the results for the IC50 with H929 cells and on CDK9/Cyclin T1 were 70 nM and 86 nM, respectively.
`CN1Cc2c(C3=CCC(N[C@H](C(=O)O)c4ccccc4)CC3)[nH]c3nccc(c23)-c2cc(F)ccc21` (stereo partly drawn) [Example 32, (2S)-{[4-(10-fluoro-7-methyl-6,7-dihydro-4H-3,4,7-triazadibenzo[cd,f]azulen-5-yl)cyclohex-3-en-1-yl]amino}(phenyl)acetic acid]: the IC50 came to 170 nM with H929 cells and 56 nM on CDK9/Cyclin T1.
The matching figures for `CN1c2ccc(F)cc2-c2ccnc3[nH]c(C4=CCNCC4)c(c23)C1C(=O)O` (centres unmarked) [Example 33, 10-fluoro-7-methyl-5-(1,2,3,6-tetrahydropyridin-4-yl)-6,7-dihydro-4H-3,4,7-triazadibenzo[cd,f]azulene-6-carboxylic acid]: 150 nM and 540 nM.
The matching figures for `CC(C)[C@H](NC1CC=C(c2[nH]c3nccc4c3c2CN(C)c2ccc(F)cc2-4)CC1)C(=O)O` (stereo partly drawn) [Example 34, N-[4-(10-fluoro-7-methyl-6,7-dihydro-4H-3,4,7-triazadibenzo[cd,f]azulen-5-yl)cyclohex-3-en-1-yl]-L-valine]: 92 nM and 120 nM.
As to `CN1Cc2c(C3=CCC(N[C@@H](Cc4ccccc4)C(=O)O)CC3)[nH]c3nccc(c23)-c2cc(F)ccc21` (stereo partly drawn) [Example 35, N-[4-(10-fluoro-7-methyl-6,7-dihydro-4H-3,4,7-triazadibenzo[cd,f]azulen-5-yl)cyclohex-3-en-1-yl]-L-phenylalanine], the IC50 with H929 cells was found to be 91 nM; against CDK9/Cyclin T1, 61 nM.
In the same order, the values of `CN1Cc2c(C3=CCC(N[C@H](C(=O)O)C(C)(C)C)CC3)[nH]c3nccc(c23)-c2cc(F)ccc21` (stereo partly drawn) [Example 36, N-[4-(10-fluoro-7-methyl-6,7-dihydro-4H-3,4,7-triazadibenzo[cd,f]azulen-5-yl)cyclohex-3-en-1-yl]-3-methyl-L-valine] are 25 nM and 64 nM.
